Results as given in patent US8710065B2, “Tricyclic inhibitors of kinases” (AbbVie Inc., priority 2011, dated 2014).

molecular target: T1, GST-tagged-Wee1 kinase (Homo sapiens, UniProt P30291); assay: Wee1 time-resolved fluorescence equilibrium binding assay (displacement of Oregon Green-labeled ATP-competitive kinase probe); conditions: read-out: Wee-1 inhibition (Ki)
T1 construct: purchased Carnabio (Carna Biosciences) 05-177
In short: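 Time-resolved fluorescence equilibrium binding with GST-Wee1, measuring displacement of a rapidly reversible Oregon Green-labelled ATP-competitive probe by competitive inhibitors; values reported as Ki.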

T1 sequence (P30291 whole entry): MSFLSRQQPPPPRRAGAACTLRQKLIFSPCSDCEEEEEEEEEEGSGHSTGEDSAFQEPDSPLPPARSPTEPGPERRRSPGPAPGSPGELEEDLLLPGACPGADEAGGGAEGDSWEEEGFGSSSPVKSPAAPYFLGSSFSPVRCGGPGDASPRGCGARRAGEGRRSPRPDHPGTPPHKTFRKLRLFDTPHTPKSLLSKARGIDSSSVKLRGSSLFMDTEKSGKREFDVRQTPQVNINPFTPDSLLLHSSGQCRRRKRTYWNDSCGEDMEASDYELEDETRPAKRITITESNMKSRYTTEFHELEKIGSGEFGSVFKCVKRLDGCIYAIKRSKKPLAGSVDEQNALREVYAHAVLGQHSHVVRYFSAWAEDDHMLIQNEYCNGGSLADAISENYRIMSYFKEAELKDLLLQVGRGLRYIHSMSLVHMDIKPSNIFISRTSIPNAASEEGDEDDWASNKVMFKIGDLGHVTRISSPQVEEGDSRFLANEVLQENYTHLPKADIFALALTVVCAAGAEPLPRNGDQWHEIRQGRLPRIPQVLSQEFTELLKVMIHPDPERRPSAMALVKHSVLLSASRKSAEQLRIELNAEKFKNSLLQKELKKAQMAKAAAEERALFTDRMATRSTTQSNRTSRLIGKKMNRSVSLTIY

SMILES	Ki [nM]
O=c1c2cnc(Nc3ccc(N4CCN(C5COC5)CC4)cc3)nc2n2ccnc2n1-c1ccccc1Cl [Example 211, 6-(2-chlorophenyl)-2-({4-[4-(oxetan-3-yl)piperazin-1-yl]phenyl}amino)imidazo[1,2-a]pyrimido[5,4-e]pyrimidin-5(6H)-one]	10 to 100
O=c1cn[nH]c2ccc(Nc3ncc4c(=O)n(-c5c(Cl)cccc5Cl)c5nccn5c4n3)cc12 [Example 213, 6-(2,6-dichlorophenyl)-2-[(4-oxo-1,4-dihydrocinnolin-6-yl)amino]imidazo[1,2-a]pyrimido[5,4-e]pyrimidin-5(6H)-one]	< 10
CC(=O)N1CCN(c2ccc(Nc3ncc4c(=O)n(-c5c(Cl)cccc5Cl)c5nccn5c4n3)cc2)CC1 [Example 214, 2-{[4-(4-acetylpiperazin-1-yl)phenyl]amino}-6-(2,6-dichlorophenyl)imidazo[1,2-a]pyrimido[5,4-e]pyrimidin-5(6H)-one]	< 10
CN(C)C1CCN(c2ccc(Nc3ncc4c(=O)n(-c5c(Cl)cccc5Cl)c5nccn5c4n3)cc2)CC1 [Example 215, 6-(2,6-dichlorophenyl)-2-({4-[4-(dimethylamino)piperidin-1-yl]phenyl}amino)imidazo[1,2-a]pyrimido[5,4-e]pyrimidin-5(6H)-one]	< 10
COC(=O)c1ccc(Nc2ncc3c(=O)n(-c4c(Cl)cccc4Cl)c4nccn4c3n2)cc1 [Example 216, methyl 4-{[6-(2,6-dichlorophenyl)-5-oxo-5,6-dihydroimidazo[1,2-a]pyrimido[5,4-e]pyrimidin-2-yl]amino}benzoate]	< 10
O=c1c2cnc(Nc3cc(Cl)c(N4CCNCC4)c(Cl)c3)nc2n2ccnc2n1-c1ccccc1Cl [Example 217, 6-(2-chlorophenyl)-2-{[3,5-dichloro-4-(piperazin-1-yl)phenyl]amino}imidazo[1,2-a]pyrimido[5,4-e]pyrimidin-5(6H)-one]	10 to 100
O=c1c2cnc(Nc3ccc(-c4cn5ccccc5n4)cc3)nc2n2ccnc2n1-c1ccccc1Cl [Example 218, 6-(2-chlorophenyl)-2-{[4-(imidazo[1,2-a]pyridin-2-yl)phenyl]amino}imidazo[1,2-a]pyrimido[5,4-e]pyrimidin-5(6H)-one]	10 to 100
CC(C)N1C(=O)CSC1c1ccc(Nc2ncc3c(=O)n(-c4ccccc4Cl)c4nccn4c3n2)cc1 (stereo not drawn) [Example 219, 6-(2-chlorophenyl)-2-({4-[4-oxo-3-(propan-2-yl)-1,3-thiazolidin-2-yl]phenyl}amino)imidazo[1,2-a]pyrimido[5,4-e]pyrimidin-5(6H)-one]	< 10
O=c1c2cnc(Nc3ccc(-c4cn5c(n4)SCC5)cc3)nc2n2ccnc2n1-c1ccccc1Cl [Example 220, 6-(2-chlorophenyl)-2-{[4-(2,3-dihydroimidazo[2,1-b][1,3]thiazol-6-yl)phenyl]amino}imidazo[1,2-a]pyrimido[5,4-e]pyrimidin-5(6H)-one]	10 to 100

Further lines, results first:

Ki [nM]	SMILES
< 10	O=C(O[C@@H]1CCCN2CCCCC12)c1ccc(Nc2ncc3c(=O)n(-c4c(Cl)cccc4Cl)c4nccn4c3n2)cc1 (stereo partly drawn) [Example 200, (1R)-octahydro-2H-quinolizin-1-yl 4-{[6-(2,6-dichlorophenyl)-5-oxo-5,6-dihydroimidazo[1,2-a]pyrimido[5,4-e]pyrimidin-2-yl]amino}benzoate]
< 10	CN(CCOC(=O)c1ccc(Nc2ncc3c(=O)n(-c4c(Cl)cccc4Cl)c4nccn4c3n2)cc1)C1CC1 [Example 201, 2-[cyclopropyl(methyl)amino]ethyl 4-{[6-(2,6-dichlorophenyl)-5-oxo-5,6-dihydroimidazo[1,2-a]pyrimido[5,4-e]pyrimidin-2-yl]amino}benzoate]
< 10	CCN1C[C@H]2C[C@@H](C1)CN(C(=O)c1ccc(Nc3ncc4c(=O)n(-c5c(Cl)cccc5Cl)c5nccn5c4n3)cc1)C2 [Example 202, 6-(2,6-dichlorophenyl)-2-[(4-{[(1R,5S)-7-ethyl-3,7-diazabicyclo[3.3.1]non-3-yl]carbonyl}phenyl)amino]imidazo[1,2-a]pyrimido[5,4-e]pyrimidin-5(6H)-one]
< 10	O=c1c2cnc(Nc3cc(F)c(N4CCNCC4)c(F)c3)nc2n2ccnc2n1-c1ccccc1Cl [Example 203, 6-(2-chlorophenyl)-2-{[3,5-difluoro-4-(piperazin-1-yl)phenyl]amino}imidazo[1,2-a]pyrimido[5,4-e]pyrimidin-5(6H)-one]
< 10	O=c1c2cnc(Nc3ccc(N4CCN5CCC[C@@H]5C4)cc3)nc2n2ccnc2n1-c1ccccc1Cl [Example 204, 6-(2-chlorophenyl)-2-({4-[(8aR)-hexahydropyrrolo[1,2-a]pyrazin-2(1H)-yl]phenyl}amino)imidazo[1,2-a]pyrimido[5,4-e]pyrimidin-5(6H)-one]
< 10	O=c1c2cnc(Nc3ccc4c(c3)CNCC43CC3)nc2n2ccnc2n1-c1ccc(O)cc1 [Example 205, 2-(2′,3′-dihydro-1′H-spiro[cyclopropane-1,4′-isoquinolin]-7′-ylamino)-6-(4-hydroxyphenyl)imidazo[1,2-a]pyrimido[5,4-e]pyrimidin-5(6H)-one]
< 10	CS(=O)(=O)N1Cc2cc(Nc3ncc4c(=O)n(-c5c(Cl)cccc5Cl)c5nccn5c4n3)ccc2C2(CC2)C1 [Example 206, 6-(2,6-dichlorophenyl)-2-{[2′-(methylsulfonyl)-2′,3′-dihydro-1′H-spiro[cyclopropane-1,4′-isoquinolin]-7′-yl]amino}imidazo[1,2-a]pyrimido[5,4-e]pyrimidin-5(6H)-one]
< 10	CC(=O)N1Cc2cc(Nc3ncc4c(=O)n(-c5c(Cl)cccc5Cl)c5nccn5c4n3)ccc2C2(CC2)C1 [Example 207, 2-[(2′-acetyl-2′,3′-dihydro-1′H-spiro[cyclopropane-1,4′-isoquinolin]-7′-yl)amino]-6-(2,6-dichlorophenyl)imidazo[1,2-a]pyrimido[5,4-e]pyrimidin-5(6H)-one]
< 10	O=c1c2cnc(Nc3ccc(N4CCN5CCCCC5C4)cc3)nc2n2ccnc2n1-c1ccccc1Cl (stereo not drawn) [Example 208, 6-(2-chlorophenyl)-2-{[4-(octahydro-2H-pyrido[1,2-a]pyrazin-2-yl)phenyl]amino}imidazo[1,2-a]pyrimido[5,4-e]pyrimidin-5(6H)-one]
< 10	CN1Cc2cc(Nc3ncc4c(=O)n(-c5c(F)cccc5Cl)c5nccn5c4n3)ccc2C1(C)C [Example 209, 6-(2-chloro-6-fluorophenyl)-2-[(1,1,2-trimethyl-2,3-dihydro-1H-isoindol-5-yl)amino]imidazo[1,2-a]pyrimido[5,4-e]pyrimidin-5(6H)-one]
< 10	CN1C(C)(C)c2ccc(Nc3ncc4c(=O)n(-c5c(F)cccc5Cl)c5nccn5c4n3)cc2C1(C)C [Example 210, 6-(2-chloro-6-fluorophenyl)-2-[(1,1,2,3,3-pentamethyl-2,3-dihydro-1H-isoindol-5-yl)amino]imidazo[1,2-a]pyrimido[5,4-e]pyrimidin-5(6H)-one]
< 10	CN1Cc2cc(Nc3ncc4c(=O)n(-c5c(Cl)cc(F)cc5Cl)c5nccn5c4n3)ccc2C(C)(C)C1 [Example 212, 6-(2,6-dichloro-4-fluorophenyl)-2-[(2,4,4-trimethyl-1,2,3,4-tetrahydroisoquinolin-7-yl)amino]imidazo[1,2-a]pyrimido[5,4-e]pyrimidin-5(6H)-one]
